≈ marks a conversion by molar mass, not a printed value. Read-outs that look alike come from different tables or passages of the source.
What was measured:
Type in all cases: cell-based, Staphylococcus aureus
S. aureus RN4220 [1] = conditions: for ICF / IC50 ± SE / MIC ± SE: resazurin
Excerpt: (§1) Based on the broth microdilution assay results for W2-FL10 and melittin, the S. aureus ATCC 25923 (reference), S. aureus RN4220 (laboratory; MSSA), or methicillin-resistant S. aureus Xen 30 (clinical; MRSA) strains were selected for further antibacterial studies. Resazurin (also referred to as Alamar Blue) is a blue, non-fluorescent dye that can be reduced to resorufin (a pink, fluorescent compound) by metabolically active cells. The dye can thus be used as a quantitative indicator of cell viability ([52]). Therefore, a broth microdilution assay coupled with resazurin [prepared to a stock solution of 0.3 mg/mL in PBS; ([53])] was used to determine the influence of cations (Mg^2+ and Ca^2+), commercial LTA of S. aureus and DOPG on the potency of W2-FL10 against S. aureus ATCC 25923, S. aureus RN4220 and MRSA Xen 30 as described by Wu et al. ([54]).
(§2) For investigating the influence of cations on the antibacterial potency of W2-FL10, a clear 96-well plate was prepared with W2-FL10 and air dried as described in the “Antibacterial activity: broth microdilution assay” section. The S. aureus strains were inoculated into MHB or CA-MHB, grown to mid-log phase (OD600 of 0.5–0.6), and diluted to OD600 of 0.4. A 1:20 dilution of the test strain (final concentration of ∼10^5 CFU/mL) was prepared and 100 µL was dispensed into each well (final concentration of W2-FL10 at 1.56 to 25 µg/mL). Sterile broth (i.e., MHB or CA-MHB) and the OD-adjusted inoculum were included in the assay as a positive control, while sterile broth (i.e., MHB or CA-MHB) was included as a sterility control. The plate was incubated for 24 h at 37°C.
(§3) Similarly, the possible interaction and binding of LTA of S. aureus and DOPG (both at 1 mg/mL in 10% EtOH) with the lipopeptide W2-FL10 was investigated ([54]). Briefly, a clear 96-well plate was prepared with W2-FL10 and air dried as described in the “Antibacterial activity: broth microdilution assay” section. Thereafter, 10 µL of LTA from S. aureus or DOPG was dispensed into the respective wells. The S. aureus strains were grown to mid-log phase in MHB (OD600 of 0.5–0.6) and diluted to OD600 of 0.4. A 1:20 dilution of test strain (final concentration of ∼10^5 CFU/mL) was prepared, 100 µL was dispensed into each well (final concentration of W2-FL10 at 3.13 to 100 µg/mL), and the plate was incubated for 24 h at 37°C. Sterile broth, the OD-adjusted inoculum, and the respective LTA or DOPG were included in the assay as a positive control, while sterile broth and LTA or DOPG were included as a sterility control.
(§4) After incubation of both plates, 10 µL of resazurin (0.3 mg/mL) was added to each well and the plate was incubated at 37°C for 1 h. Fluorometric readings of the experimental plates were conducted using a Tecan Spark 10M Multimode Microplate Reader at 560 nm excitation wavelength and 590 nm emission wavelength. For all resazurin assays, the percentage inhibition was calculated as described by van Rensburg et al. ([53]). All experiments were performed in triplicate, with independent biological duplicates. […] Dose-response curves (nonlinear regression using equation 1) were processed as described by Rautenbach et al. ([17]) (also see description above), and IC50 values were deduced from the best-fit sigmoidal curves (R^2 ≥ 0.98). Statistical analyses were done by comparing W2-FL10 IC50, in the presence of Ca^2+ and Mg^2+, in the presence of DOPG, and in the presence of LTA toward the control condition each of the three S. aureus strains using one-way analysis of variance (ANOVA) with Bonferroni’s post hoc test.

MRSA Xen 30 [2] = conditions: for ICF / IC50 ± SE / MIC ± SE: resazurin
Excerpt: as §1, §2, §3, §4

S. aureus RN4220 [3] = assay: Scanning electron microscopy; conditions: 25 µg/mL, 1 h; primarily one large lesion per cell
Procedure: (§5) SEM was performed to visualize the bacterial membrane morphology following treatment ([24]). Briefly, the S. aureus strains were prepared as described in the “Antibacterial activity: broth microdilution assay” section and harvested by centrifugation at 3,000 rpm for 10 min. The cells were re-suspended in PBS at a dilution of ~10^7 CFU/mL (OD600 = 0.4). The diluted cultures were then treated with 25 µg/mL of W2-FL10, for 1 h, while cells without W2-FL10 were used as a control. Specimens were resuspended in 2.5% (vol/vol) glutaraldehyde solution in 0.1 M PBS (pH 7.2) and fixed for approximately 24 h. After the primary fixation, bacterial cells were pelleted and rinsed with PBS. Dehydration of samples through an ethanol series (30%, 50%, 70%, 90%, 95%, and 100% for 10 min each) was performed, followed by filtration onto a filter paper (pore size of 0.2 µm), which was glued onto an aluminum grid (11 mm diameter). The grid was dried with hexamethyldisilazane and coated with gold-palladium alloy. The grids were then inspected with a Tescan MIRA3 RISE Scanning Electron Microscope at the Electron Microscope Unit of the University of Cape Town.

MRSA Xen 30 [4] = assay: Scanning electron microscopy; conditions: 25 µg/mL, 1 h
Procedure: as §5

S. aureus ATCC 25923 = assay: Scanning electron microscopy; conditions: 25 µg/mL, 1 h
Procedure: as §5

[5] = LTA 100 µg/mL vs control, P < 0.001
[6] = LTA of S. aureus 100 µg/mL, n = 3

CCCCCCCC1CC(=O)N[C@H](CC(C)C)C(=O)N[C@@H](CO)C(=O)N[C@@H]([C@@H](C)O)C(=O)N[C@H](Cc2ccccc2)C(=O)N[C@@H](CC(C)C)C(=O)O1 (some centres unmarked) [W2-FL10, serrawettin W2-FL10]
increase in the IC50 in the presence of LTA (S. aureus RN4220 [1]; [5]): twofold
ICF (S. aureus RN4220 [1]; Ca2+ and Mg2+ (CA-MHB)): 6.3
IC50 ± SE (S. aureus RN4220 [1]; Ca2+ and Mg2+ (CA-MHB), n = 3): 10 µg/mL (≈ 13.7 µM)
MIC ± SE (S. aureus RN4220 [1]; Ca2+ and Mg2+ (CA-MHB), n = 3): 25.0 ± 0.0 µg/mL (≈ 34.2 µM)
ICF (S. aureus RN4220 [1]; Control (MHB)): 3.6
MIC ± SE (S. aureus RN4220 [1]; Control (MHB), 24 h 37°C, n = 4): 25.0 ± 0.0 µg/mL (≈ 34.2 µM)
IC50 ± SE (S. aureus RN4220 [1]; Control (MHB), n = 4): 13.2 µg/mL (≈ 18 µM)
ICF (S. aureus RN4220 [1]; DOPG 100 µg/mL): 2.2
IC50 ± SE (S. aureus RN4220 [1]; DOPG 100 µg/mL, n = 3): 44.6 µg/mL (≈ 60.9 µM)
MIC ± SE (S. aureus RN4220 [1]; DOPG 100 µg/mL, n = 3): 66.7 ± 16.7 µg/mL (≈ 91.1 µM)
ICF (S. aureus RN4220 [1]; LTA 100 µg/mL): 3.5
IC50 ± SE (S. aureus RN4220 [1]; LTA 100 µg/mL, n = 3): 26.8 µg/mL (≈ 36.6 µM)
MIC ± SE (S. aureus RN4220 [1]; [6]): 50.0 ± 0.0 µg/mL (≈ 68.3 µM)
increase in the IC50 in the presence of LTA (MRSA Xen 30 [2]; [5]): twofold
ICF (MRSA Xen 30 [2]; Ca2+ and Mg2+ (CA-MHB)): 1.7
IC50 ± SE (MRSA Xen 30 [2]; Ca2+ and Mg2+ (CA-MHB), n = 4): 12.2±0.2 (5) 9.5±1.5 (4) 40.6±2.0 (4) 24.6±0.1 (4) µg/mL
MIC ± SE (MRSA Xen 30 [2]; Ca2+ and Mg2+ (CA-MHB), n = 4): 12.5 ± 0.0 µg/mL (≈ 17.1 µM)
ICF (MRSA Xen 30 [2]; Control (MHB)): 3.4
MIC ± SE (MRSA Xen 30 [2]; Control (MHB), 24 h 37°C, n = 5): 22.5 ± 2.5 µg/mL (≈ 30.7 µM)
IC50 ± SE (MRSA Xen 30 [2]; Control (MHB), n = 5): 12.2 µg/mL (≈ 16.7 µM)
ICF (MRSA Xen 30 [2]; DOPG 100 µg/mL): 2.4
IC50 ± SE (MRSA Xen 30 [2]; DOPG 100 µg/mL, n = 4): 40.6 µg/mL (≈ 55.5 µM)
MIC ± SE (MRSA Xen 30 [2]; DOPG 100 µg/mL, n = 4): 62.5 ± 12.5 µg/mL (≈ 85.4 µM)
ICF (MRSA Xen 30 [2]; LTA 100 µg/mL): 4.1
IC50 ± SE (MRSA Xen 30 [2]; LTA 100 µg/mL, n = 4): 24.6 µg/mL (≈ 33.6 µM)
MIC ± SE (MRSA Xen 30 [2]; [6]): 50.0 ± 17.7 µg/mL (≈ 68.3 µM)
morphology by SEM, in words (S. aureus RN4220 [3]): more significant cell damage
morphology by SEM, in words (MRSA Xen 30 [4]): Minor morphological changes
morphology by SEM, in words (S. aureus ATCC 25923): Minor morphological changes
